In patent publication US7560468B2, “Substituted 1,4,8-triazaspiro[4,5]decan-2-one compounds” (Gruenenthal GmbH, priority 2004, dated 2009):

Assays:
5-HT transporter = molecular target: T1, 5-HT transporter (Rattus norvegicus, UniProt P31652); experiment: Inhibition of 5-HT uptake in synaptosomes; assay type: biochemical; conditions: for inhibition at 1 µM: read-out: Uptake_5-HT, rat, 1 μM, % inhibition
T1 construct: from tissue; host or cells: rat brain synaptosomes (marrow/medulla and pons), P2 fraction

[1] = tested on: batrachotoxin (BTX) binding site of the sodium channel; experiment: Affinity to the batrachotoxin (BTX) binding site of the sodium channel; conditions: rat cerebrocortex synaptosomes, [3H]-batrachotoxinin A20 α-benzoate 10 nM; test concentration not given

T1 sequence (P31652 whole entry): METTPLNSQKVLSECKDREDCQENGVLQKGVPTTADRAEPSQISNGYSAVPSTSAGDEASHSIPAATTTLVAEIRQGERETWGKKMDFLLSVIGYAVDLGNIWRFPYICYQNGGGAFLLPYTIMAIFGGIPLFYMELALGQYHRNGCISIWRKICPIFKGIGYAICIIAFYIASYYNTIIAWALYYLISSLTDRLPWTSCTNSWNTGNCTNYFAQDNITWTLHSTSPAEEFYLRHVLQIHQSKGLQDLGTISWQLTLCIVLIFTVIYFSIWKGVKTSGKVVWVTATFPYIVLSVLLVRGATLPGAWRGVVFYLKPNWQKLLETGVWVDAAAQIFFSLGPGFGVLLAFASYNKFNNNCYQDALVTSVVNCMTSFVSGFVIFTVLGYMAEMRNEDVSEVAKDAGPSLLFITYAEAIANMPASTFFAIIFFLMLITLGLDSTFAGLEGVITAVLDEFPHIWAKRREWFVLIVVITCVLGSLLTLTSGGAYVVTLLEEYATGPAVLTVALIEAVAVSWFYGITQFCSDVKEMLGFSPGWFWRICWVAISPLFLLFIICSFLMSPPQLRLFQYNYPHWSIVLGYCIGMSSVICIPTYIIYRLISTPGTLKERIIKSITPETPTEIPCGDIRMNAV

SMILES | Uptake_5-HT, rat, 1 μM, % inhibition (5-HT transporter) | BTX Inhibition [1] | inhibition at 1 µM (5-HT transporter)
COc1ccc(S(=O)(=O)N2CCC3(CC2)NC(Cc2ccccc2)C(=O)N3Cc2ccccc2)cc1OC (stereo not shown) [Example 29, 1,3-Dibenzyl-8-(3,4-dimethoxy-benzolsulfonyl)-1,4,8-triazaspiro[4,5]decan-2-one] | 75% | 47 | 
CCCCN1C(=O)C(Cc2ccccc2)NC12CCN(S(=O)(=O)c1ccc(CC)cc1)CC2 (stereo not shown) [Example 33, 3-Benzyl-1-butyl-8-(4-ethylbenzolsulfonyl)-1,4,8-triazaspiro[4,5]decan-2-one] | 67% | 54 | 
O=C1C(Cc2ccccc2)NC2(CCN(S(=O)(=O)c3ccccc3F)CC2)N1Cc1ccccc1 (stereo not shown) [Example 37, 1,3-Dibenzyl-8-(2-fluorobenzolsulfonyl)-1,4,8-triazaspiro[4,5]decan-2-one] | 73% | 61 | 
CSCCC1NC2(CCN(S(=O)(=O)c3ccc(C)cc3)CC2)N(Cc2ccc(F)cc2)C1=O (stereo not shown) [Example 44, 1-(4-Fluorobenzyl)-3-(2-methylsulfanylethyl)-8-(toluol-4-sulfonyl)-1,4,8-triazaspiro[4,5]decan-2-one] | 42% | 42 | 
Cc1ccc(S(=O)(=O)N2CCC3(CC2)NC(Cc2ccccc2)C(=O)N3Cc2ccccc2)cc1 (stereo not shown) [Example 45, 1,3-Dibenzyl-8-(toluol-4-sulfonyl)-1,4,8-triazaspiro[4,5]decan-2-one] | 74% | 37 | 
CCOC(=O)CN1C(=O)C(Cc2ccccc2)NC12CCN(S(=O)(=O)c1cccs1)CC2 (stereo not shown) [Example 48] | 85% | 30 | 
COC(=O)c1ccc(CN2C(=O)CNC23CCN(S(=O)(=O)Cc2ccccc2)CC3)cc1 [Example 51, Methyl 4-(2-Oxo-8-benzolmethansulfonyl-1,4,8-triazaspiro[4,5]dec-1-ylmethyl)benzoate] | 62% | 31 | 
CC1(C)C2CCC1(CS(=O)(=O)N1CCC3(CC1)NCC(=O)N3Cc1ccccc1F)C(=O)C2 (stereo not shown) [Example 56, 8-(7,7-Dimethyl-2-oxobicyclo[2.2.1]hept-1-ylmethansulfonyl)-1-(2-fluorobenzyl)-1,4,8-triazaspiro[4,5]decan-2-one] |  | 32 | 60%
CCOC(=O)CN1C(=O)C(CCSC)NC12CCN(S(=O)(=O)Cc1ccccc1)CC2 (stereo not shown) [Example 57, Ethyl[3-(2-methylsulfanylethyl)-2-oxo-8-benzolmethansulfonyl-1,4,8-triazaspiro[4,5]dec-1-yl]-acetate] | 32% | 34 | 
Cc1cc(C)c(S(=O)(=O)N2CCC3(CC2)NCC(=O)N3Cc2cccc(C#N)c2)c(C)c1 [Example 59, 3-[2-Oxo-8-(2,4,6-trimethylbenzolsulfonyl)-1,4,8-triazaspiro[4,5]dec-1-ylmethyl]-benzonitrile] | 50% | 50 | 
COC(=O)c1ccc(CN2C(=O)CNC23CCN(S(=O)(=O)c2c(C)cc(C)cc2C)CC3)cc1 [Example 60, Methyl-4-[2-oxo-8-(2,4,6-trimethylbenzolsulfonyl)-1,4,8-triazaspiro[4,5]dec-1-ylmethyl]-benzoate] | 65% | 59 | 
CCOC(=O)CN1C(=O)C(Cc2ccccc2)NC12CCN(S(=O)(=O)c1ccc(Cl)s1)CC2 (stereo not shown) [Example 61, Ethyl[3-benzyl-8-(5-chlorothiophen-2-sulfonyl)-2-oxo-1,4,8-triazaspiro[4,5]dec-1-yl]-acetate] |  | 50 | 61%
CCOC(=O)CN1C(=O)C(Cc2ccccc2)NC12CCN(S(=O)(=O)c1cccc(C)c1)CC2 (stereo not shown) [Example 63, Ethyl[3-benzyl-2-oxo-8-(toluol-3-sulfonyl)-1,4,8-triazaspiro[4,5]dec-1-yl]-acetate] | 59% | 36 | 
CCOC(=O)CN1C(=O)C(Cc2ccccc2)NC12CCN(S(=O)(=O)c1ccccc1)CC2 (stereo not shown) [Example 66, Ethyl(8-benzolsulfonyl-3-benzyl-2-oxo-1,4,8-triazaspiro[4,5]dec-1-yl)acetate] | 64% | 39 | 
CCCc1ccc(S(=O)(=O)N2CCC3(CC2)NC(Cc2ccccc2)C(=O)N3CC(=O)OCC)cc1 (stereo not shown) [Example 67, Ethyl[3-benzyl-2-oxo-8-(4-propylbenzolsulfonyl)-1,4,8-triazaspiro[4,5]dec-1-yl]-acetate] | 64% | 40 | 
CCOC(=O)CN1C(=O)C(Cc2ccccc2)NC12CCN(S(=O)(=O)c1ccc(F)c(Cl)c1)CC2 (stereo not shown) [Example 69, Ethyl[3-benzyl-8-(3-chloro-4-fluorobenzolsulfonyl)-2-oxo-1,4,8-triazaspiro[4,5]dec-1-yl]-acetate] | 62% | 73 | 
O=C1C(Cc2ccccc2)NC2(CCN(S(=O)(=O)c3ccccc3)CC2)N1Cc1ccccc1F (stereo not shown) [Example 71, 8-Benzolsulfonyl-3-benzyl-1-(2-fluorobenzyl)-1,4,8-triazaspiro[4,5]decan-2-one] | 76% | 85 | 
CCOC(=O)CN1C(=O)C(Cc2ccccc2)NC12CCN(S(=O)(=O)c1c(C)cc(C)cc1C)CC2 (stereo not shown) [Example 72, Ethyl[3-benzyl-2-oxo-8-(2,4,6-trimethylbenzolsulfonyl)-1,4,8-triazaspiro[4,5]dec-1-yl]-acetate] | 75% | 75 | 
CCOC(=O)CN1C(=O)C(Cc2ccccc2)NC12CCN(S(=O)(=O)c1cc(OC)ccc1OC)CC2 (stereo not shown) [Example 74, Ethyl[3-benzyl-8-(2,5-dimethoxy-benzolsulfonyl)-2-oxo-1,4,8-triazaspiro[4,5]dec-1-yl]-acetate] | 74% | 30 | 
CSCCC1NC2(CCN(S(=O)(=O)N(C)C)CC2)N(Cc2ccc3ccccc3c2)C1=O (stereo not shown) [Example 75, 3-(2-Methylsulfanylethyl)-1-naphthalin-2-ylmethyl-2-oxo-1,4,8-triazaspiro[4,5]decan-8-sulfonic acid dimethylamide] |  | 62 | 74%
CC(C)C1NC2(CCN(S(=O)(=O)c3ccc4c(c3)CN(C(=O)C(F)(F)F)CC4)CC2)N(Cc2cccc(C#N)c2)C1=O (stereo not shown) [Example 77, 3-{3-Isopropyl-2-oxo-8-[2-(2,2,2-trifluoroacetyl)-1,2,3,4-tetrahydroisoquinolin-7-sulfonyl]-1,4,8-triazaspiro[4,5]dec-1-ylmethyl}-benzonitrile] |  | 36 | 32%
C=CCN1C(=O)C(CCSC)NC12CCN(S(=O)(=O)c1c(C)cc(OC)c(C)c1C)CC2 (stereo not shown) [Example 79, 1-Allyl-8-(4-methoxy-2,3,6-trimethylbenzolsulfonyl)-3-(2-methylsulfanylethyl)-1,4,8-triazaspiro[4,5]decan-2-one] | 37% | 67 | 
CCOC(=O)CN1C(=O)C(Cc2ccccc2)NC12CCN(S(=O)(=O)c1ccccc1C(=O)OC)CC2 (stereo not shown) [Example 80, Methyl 2-(3-benzyl-1-ethoxycarbonylmethyl-2-oxo-1,4,8-triazaspiro[4,5]decan-8-sulfonyl)benzoate] |  | 33 | 84%
O=C1C(Cc2ccccc2)NC2(CCN(S(=O)(=O)c3ccccc3C(F)(F)F)CC2)N1Cc1ccccc1F (stereo not shown) [Example 81, 3-Benzyl-1-(2-fluorobenzyl)-8-(2-trifluoromethylbenzolsulfonyl)-1,4,8-triazaspiro[4,5]decan-2-one] | 81% | 87 | 
CC(C)CC1NC2(CCN(C(=S)Nc3ccc(F)cc3)CC2)NC1=O (stereo not shown) [Example 112, 2-Isobutyl-3-oxo-1,4,8-triazaspiro[4,5]decan-8-thiocarboxylic acid (4-fluorobenzol)amide] | 31% | 30 | 
CCCCN1C(=O)C(C(C)C)NC12CCN(C(=S)Nc1ccccc1)CC2 (stereo not shown) [Example 116, 1-Butyl-3-isopropyl-2-oxo-1,4,8-triazaspiro[4,5]decan-8-thiocarboxylic acid benzolamide] | 40% | 30 | 
CCCCN1C(=O)C(C(C)C)NC12CCN(C(=S)Nc1cc(Cl)ccc1Cl)CC2 (stereo not shown) [Example 117, 1-Butyl-3-isopropyl-2-oxo-1,4,8-triazaspiro[4,5]decan-8-thiocarboxylic acid (2,5-dichlorobenzol)amide] | 33% | 44 | 
CCCCN1C(=O)C(CCSC)NC12CCN(C(=S)Nc1cc(Cl)ccc1Cl)CC2 (stereo not shown) [Example 120, 1-Butyl-3-(2-methylsulfanylethyl)-2-oxo-1,4,8-triazaspiro[4,5]decan-8-thiocarboxylic acid (2,5-dichlorobenzol)amide] | 58% | 49 | 
COCCNC(=S)N1CCC2(CC1)NC(CCSC)C(=O)N2Cc1ccc2ccccc2c1 (stereo not shown) [Example 121, 3-(2-Methylsulfanylethyl)-1-naphthalin-2-ylmethyl-2-oxo-1,4,8-triazaspiro[4,5]decan-8-thiocarboxylic acid (2-methoxy-ethyl)amide] |  | 47 | 39%
